Results reported in ChEMBL document CHEMBL3885881, “DrugMatrix”.

Species: Rattus norvegicus
Assay: DrugMatrix - Regimen: Daily Repeat
Format: toxicity, organism-based, Sprague-Dawley
Design: regimen Daily Repeat, gender Male, age 6-8 weeks
Details: in vivo, iv, […], vehicle 100 % SALINE; for ALANINE AMINOTRANSFERASE / ALBUMIN / ALKALINE PHOSPHATASE / ASPARTATE AMINOTRANSFERASE / BLOOD UREA NITROGEN / CARBON DIOXIDE / CHLORIDE / CHOLESTEROL / CREATINE PHOSPHOKINASE / CREATININE / GLUCOSE / LACTATE DEHYDROGENASE / LIPASE / PHOSPHORUS / POTASSIUM / SODIUM / TOTAL BILIRUBIN / TOTAL PROTEIN / URIC ACID: tissue Plasma; for ABSOLUTE BASOPHIL / ABSOLUTE EOSINOPHIL / ABSOLUTE LYMPHOCYTE / ABSOLUTE MONOCYTE / ABSOLUTE SEGMENTED NEUTROPHIL / BASOPHIL / EOSINOPHIL / ERYTHROCYTE COUNT / HEMATOCRIT / HEMOGLOBIN / LEUKOCYTE COUNT / LYMPHOCYTE / MEAN CORPUSCULAR HEMOGLOBIN / MEAN CORPUSCULAR HEMOGLOBIN CONCENTRATION / MEAN CORPUSCULAR VOLUME / MONOCYTE / NEUTROPHIL / NUCLEATED RED BLOOD CELLS / PLATELET COUNT: tissue Blood
[1] = 72 h, dose 0.15 mg/Kg, dose level Low, time 3 day
[2] = 72 h, dose 1.5 mg/Kg, dose level High, time 3 day
[3] = 120 h, dose 0.15 mg/Kg, dose level Low, time 5 day
[4] = 120 h, dose 1.5 mg/Kg, dose level High, time 5 day

CCC1=C[C@@H]2CN(C1)Cc1c([nH]c3ccccc13)[C@@](C(=O)OC)(c1cc3c(cc1OC)N(C)[C@H]1[C@@](O)(C(=O)OC)[C@H](OC(C)=O)[C@]4(CC)C=CCN5CC[C@]31[C@@H]54)C2 [VINORELBINE]
ALANINE AMINOTRANSFERASE [1]: 59 u/L
ALBUMIN [1]: 4.53 G/DL
ALKALINE PHOSPHATASE [1]: 404 u/L
ASPARTATE AMINOTRANSFERASE [1]: 88.67 u/L
BLOOD UREA NITROGEN [1]: 17.33 mg/dL
CARBON DIOXIDE [1]: 27.33 mmol/L
CHLORIDE [1]: 101 MEQ/L
CHOLESTEROL [1]: 68.67 mg/dL
CREATINE PHOSPHOKINASE [1]: 237.67 u/L
CREATININE [1]: 0.23 mg/dL
GLUCOSE [1]: 167.33 mg/dL
LACTATE DEHYDROGENASE [1]: 308.67 u/L
LIPASE [1]: 9.67 u/L
PHOSPHORUS [1]: 13.7 mg/dL
POTASSIUM [1]: 6.88 MEQ/L
SODIUM [1]: 145.07 MEQ/L
TOTAL BILIRUBIN [1]: 0.23 mg/dL
TOTAL PROTEIN [1]: 6.33 G/DL
URIC ACID [1]: 2.1 mg/dL
ALANINE AMINOTRANSFERASE [2]: 45.33 u/L
ALBUMIN [2]: 4.47 G/DL
ALKALINE PHOSPHATASE [2]: 359.33 u/L
ASPARTATE AMINOTRANSFERASE [2]: 137.33 u/L
BLOOD UREA NITROGEN [2]: 20.67 mg/dL
CARBON DIOXIDE [2]: 24 mmol/L
CHLORIDE [2]: 103 MEQ/L
CHOLESTEROL [2]: 72.67 mg/dL
CREATINE PHOSPHOKINASE [2]: 671.33 u/L
CREATININE [2]: 0.17 mg/dL
GLUCOSE [2]: 185.67 mg/dL
LACTATE DEHYDROGENASE [2]: 160.33 u/L
LIPASE [2]: 10 u/L
PHOSPHORUS [2]: 13 mg/dL
POTASSIUM [2]: 5.92 MEQ/L
SODIUM [2]: 146 MEQ/L
TOTAL BILIRUBIN [2]: 0.1 mg/dL
TOTAL PROTEIN [2]: 6.2 G/DL
URIC ACID [2]: 2.37 mg/dL
ABSOLUTE BASOPHIL [3]: 0 CELLS/uL
ABSOLUTE EOSINOPHIL [3]: 49 CELLS/uL
ABSOLUTE LYMPHOCYTE [3]: 14282 CELLS/uL
ABSOLUTE MONOCYTE [3]: 49 CELLS/uL
ABSOLUTE SEGMENTED NEUTROPHIL [3]: 2420 CELLS/uL
BASOPHIL [3]: 0%
EOSINOPHIL [3]: 0.33%
ERYTHROCYTE COUNT [3]: 5.78 x10E6/uL
HEMATOCRIT [3]: 36.1%
HEMOGLOBIN [3]: 14.13 G/DL
LEUKOCYTE COUNT [3]: 16.8 x10E3/uL
LYMPHOCYTE [3]: 84.67%
MEAN CORPUSCULAR HEMOGLOBIN [3]: 24.47 pg
MEAN CORPUSCULAR HEMOGLOBIN CONCENTRATION [3]: 39.2 G/DL
MEAN CORPUSCULAR VOLUME [3]: 62.5 fL
MONOCYTE [3]: 0.33%
NEUTROPHIL [3]: 14.67%
NUCLEATED RED BLOOD CELLS [3]: 0 /100WBC
PLATELET COUNT [3]: 1168.33 x10E3/uL
ABSOLUTE BASOPHIL [4]: 0 CELLS/uL
ABSOLUTE EOSINOPHIL [4]: 0 CELLS/uL
ABSOLUTE LYMPHOCYTE [4]: 6817.33 CELLS/uL
ABSOLUTE MONOCYTE [4]: 24.67 CELLS/uL
ABSOLUTE SEGMENTED NEUTROPHIL [4]: 24.67 CELLS/uL
BASOPHIL [4]: 0%
EOSINOPHIL [4]: 0%
ERYTHROCYTE COUNT [4]: 5.47 x10E6/uL
HEMATOCRIT [4]: 31.93%
HEMOGLOBIN [4]: 12.93 G/DL
LEUKOCYTE COUNT [4]: 6.87 x10E3/uL
LYMPHOCYTE [4]: 99.33%
MEAN CORPUSCULAR HEMOGLOBIN [4]: 23.67 pg
MEAN CORPUSCULAR HEMOGLOBIN CONCENTRATION [4]: 40.5 G/DL
MEAN CORPUSCULAR VOLUME [4]: 58.4 fL
MONOCYTE [4]: 0.33%
NEUTROPHIL [4]: 0.33%
NUCLEATED RED BLOOD CELLS [4]: 0 /100WBC
PLATELET COUNT [4]: 359 x10E3/uL
ALANINE AMINOTRANSFERASE [3]: 48.33 u/L
ALBUMIN [3]: 4.33 G/DL
ALKALINE PHOSPHATASE [3]: 436.67 u/L
ASPARTATE AMINOTRANSFERASE [3]: 85 u/L
BLOOD UREA NITROGEN [3]: 16.67 mg/dL
CARBON DIOXIDE [3]: 27 mmol/L
CHLORIDE [3]: 100.67 MEQ/L
CHOLESTEROL [3]: 65.33 mg/dL
CREATINE PHOSPHOKINASE [3]: 245 u/L
CREATININE [3]: 0.2 mg/dL
GLUCOSE [3]: 166.33 mg/dL
LACTATE DEHYDROGENASE [3]: 152 u/L
LIPASE [3]: 9.33 u/L
PHOSPHORUS [3]: 12.43 mg/dL
POTASSIUM [3]: 7.02 MEQ/L
SODIUM [3]: 145.37 MEQ/L
TOTAL BILIRUBIN [3]: 0.2 mg/dL
TOTAL PROTEIN [3]: 6.27 G/DL
URIC ACID [3]: 2.07 mg/dL
ALANINE AMINOTRANSFERASE [4]: 58.67 u/L
ALBUMIN [4]: 4.23 G/DL
ALKALINE PHOSPHATASE [4]: 367.67 u/L
ASPARTATE AMINOTRANSFERASE [4]: 138.67 u/L
BLOOD UREA NITROGEN [4]: 15 mg/dL
CARBON DIOXIDE [4]: 31.33 mmol/L
CHLORIDE [4]: 100 MEQ/L
CHOLESTEROL [4]: 75 mg/dL
CREATINE PHOSPHOKINASE [4]: 193 u/L
CREATININE [4]: 0.19 mg/dL
GLUCOSE [4]: 143.67 mg/dL
LACTATE DEHYDROGENASE [4]: 98 u/L
LIPASE [4]: 9 u/L
PHOSPHORUS [4]: 10.6 mg/dL
POTASSIUM [4]: 6.34 MEQ/L
SODIUM [4]: 146.4 MEQ/L
TOTAL BILIRUBIN [4]: 0.2 mg/dL
TOTAL PROTEIN [4]: 6.13 G/DL
URIC ACID [4]: 0.9 mg/dL
